Our source for the 3 h FOB score values is the OligoGym collection.

HELM strings list units from the 5' end as sugar, base in round brackets, then linkage (d deoxyribose, r ribose, m 2'-O-methyl, p phosphodiester). Strings are as the collection lists them; they lack the last nucleoside at the 3' end of the tested compound. [moe] = 2'-O-(2-methoxyethyl) (MOE); [sp] = phosphorothioate linkage; [m5C] = 5-methylcytosine

The data set addresses APP. Briefly: mouse, dose not given. Conditions: ASO.
Substance “RNA1{[moe](G)[sp].[moe](T)p.[moe](T)p.[moe](T)p.[moe](A)[sp].d([m5C])[sp].d([m5C])[sp].d(T)[sp].d(T)[sp].d(T)[sp].d(A)[sp].d(A)[sp].d([m5C])[sp].d(A)[sp].d(T)[sp].[moe](T)p.[moe]([m5C])p.[moe]([m5C])[sp].[moe](T)}$$$$ (last 3' nucleoside missing)” displayed a 3 h FOB score of 0 score 0-7. Then “RNA1{[moe](G)[sp].[moe]([m5C])p.[moe](A)p.[moe](G)p.[moe](T)[sp].d([m5C])[sp].d(A)[sp].d(A)[sp].d(T)[sp].d([m5C])[sp].d(A)[sp].d(A)[sp].d([m5C])[sp].d(T)[sp].d([m5C])[sp].[moe]([m5C])p.[moe](A)p.[moe](A)[sp].[moe]([m5C])}$$$$ (last 3' nucleoside missing)”, with 0 score 0-7; and “RNA1{[moe](G)[sp].[moe](T)p.[moe](T)p.[moe](T)p.[moe]([m5C])[sp].d(A)[sp].d(G)[sp].d(T)[sp].d(A)[sp].d(T)[sp].d(A)[sp].d(T)[sp].d(T)[sp].d([m5C])[sp].d(T)[sp].[moe]([m5C])p.[moe](T)p.[moe](G)[sp].[moe]([m5C])}$$$$ (last 3' nucleoside missing)”, with 0 score 0-7. Then “RNA1{[moe]([m5C])[sp].[moe]([m5C])p.[moe]([m5C])p.[moe](A)p.[moe]([m5C])[sp].d(T)[sp].d(T)[sp].d([m5C])[sp].d([m5C])[sp].d([m5C])[sp].d(A)[sp].d(T)[sp].d(T)[sp].d([m5C])[sp].d(T)[sp].[moe](G)p.[moe](G)p.[moe](A)[sp].[moe]([m5C])}$$$$ (last 3' nucleoside missing)”, with 0.5 score 0-7; and “RNA1{[moe]([m5C])[sp].[moe](A)[sp].[moe](T)p.[moe]([m5C])p.[moe](A)[sp].d([m5C])[sp].d(T)[sp].d(T)[sp].d(A)[sp].d([m5C])[sp].d(A)[sp].d(A)[sp].d(A)[sp].d([m5C])[sp].d(T)[sp].[moe]([m5C])p.[moe](A)p.[moe]([m5C])[sp].[moe]([m5C])}$$$$ (last 3' nucleoside missing)”, with 0 score 0-7.

The substance “RNA1{[moe](T)[sp].[moe](G)p.[moe](G)p.[moe]([m5C])p.[moe](A)[sp].d(A)[sp].d(A)[sp].d([m5C])[sp].d(T)[sp].d([m5C])[sp].d(T)[sp].d([m5C])[sp].d(T)[sp].d(T)[sp].d(A)[sp].[moe](G)p.[moe](G)p.[moe](T)[sp].[moe](T)}$$$$ (last 3' nucleoside missing)” gave a 3 h FOB score of 1.33 score 0-7. Then “RNA1{[moe](T)[sp].[moe]([m5C])p.[moe](G)p.[moe](G)p.[moe](A)[sp].d([m5C])[sp].d(T)[sp].d(T)[sp].d(A)[sp].d([m5C])[sp].d(T)[sp].d(G)[sp].d(T)[sp].d(A)[sp].d(A)[sp].[moe](T)p.[moe](G)p.[moe](G)[sp].[moe](G)}$$$$ (last 3' nucleoside missing)”, with 1.25 score 0-7; and “RNA1{[moe](T)[sp].[moe]([m5C])p.[moe]([m5C])p.[moe](A)p.[moe](T)[sp].d([m5C])[sp].d(T)[sp].d(T)[sp].d([m5C])[sp].d(A)[sp].d([m5C])[sp].d(T)[sp].d(T)[sp].d([m5C])[sp].d(A)[sp].[moe](G)p.[moe](A)p.[moe](G)[sp].[moe](A)}$$$$ (last 3' nucleoside missing)”, with 0.5 score 0-7; and “RNA1{[moe]([m5C])[sp].[moe](T)p.[moe]([m5C])p.[moe](T)p.[moe]([m5C])p.[moe](A)[sp].d(T)[sp].d(A)[sp].d(G)[sp].d(T)[sp].d([m5C])[sp].d(T)[sp].d(T)[sp].d(A)[sp].d(A)[sp].d(T)[sp].[moe](T)p.[moe]([m5C])[sp].[moe]([m5C])}$$$$ (last 3' nucleoside missing)”, with 0.75 score 0-7. Then “RNA1{[moe](G)[sp].[moe]([m5C])p.[moe](A)p.[moe]([m5C])p.[moe](A)[sp].d(A)[sp].d(T)[sp].d(T)[sp].d(A)[sp].d(T)[sp].d(T)[sp].d(G)[sp].d(T)[sp].d(T)[sp].d(T)[sp].[moe]([m5C])p.[moe]([m5C])p.[moe](T)[sp].[moe]([m5C])}$$$$ (last 3' nucleoside missing)”, with 1 score 0-7; and “RNA1{[moe]([m5C])[sp].[moe](G)p.[moe](T)p.[moe](G)p.[moe](T)[sp].d(G)[sp].d(T)[sp].d(A)[sp].d(T)[sp].d([m5C])[sp].d([m5C])[sp].d(T)[sp].d([m5C])[sp].d(T)[sp].d(T)[sp].[moe](A)p.[moe](A)p.[moe](T)[sp].[moe](T)}$$$$ (last 3' nucleoside missing)”, with 1 score 0-7. “RNA1{[moe](T)[sp].[moe](G)p.[moe](G)p.[moe](T)p.[moe](T)[sp].d(T)[sp].d(A)[sp].d([m5C])[sp].d([m5C])[sp].d(T)[sp].d(T)[sp].d(T)[sp].d(A)[sp].d(A)[sp].d([m5C])[sp].[moe](A)p.[moe](T)p.[moe](T)[sp].[moe]([m5C])}$$$$ (last 3' nucleoside missing)” yielded a 3 h FOB score of 0 score 0-7.

“RNA1{[moe](T)[sp].[moe]([m5C])p.[moe]([m5C])p.[moe](A)p.[moe](A)[sp].d(A)[sp].d(G)[sp].d(A)[sp].d(T)[sp].d(T)[sp].d([m5C])[sp].d([m5C])[sp].d(A)[sp].d([m5C])[sp].d(T)[sp].[moe](T)p.[moe](T)p.[moe]([m5C])[sp].[moe](T)}$$$$ (last 3' nucleoside missing)” yielded a 3 h FOB score of 0.5 score 0-7. “RNA1{[moe](G)[sp].[moe]([m5C])p.[moe](T)p.[moe]([m5C])p.[moe](A)[sp].d(G)[sp].d(A)[sp].d(G)[sp].d([m5C])[sp].d([m5C])[sp].d(A)[sp].d(G)[sp].d(G)[sp].d([m5C])[sp].d(G)[sp].[moe](A)p.[moe](G)p.[moe](T)[sp].[moe]([m5C])}$$$$ (last 3' nucleoside missing)” had a 3 h FOB score of 3 score 0-7. Then “RNA1{[moe](G)[sp].[moe](G)p.[moe]([m5C])p.[moe](A)p.[moe](T)[sp].d([m5C])[sp].d(A)[sp].d([m5C])[sp].d(T)[sp].d(T)[sp].d(A)[sp].d([m5C])[sp].d(A)[sp].d(A)[sp].d(A)[sp].[moe]([m5C])p.[moe](T)p.[moe]([m5C])p.[moe](A)}$$$$ (last 3' nucleoside missing)”, with 0 score 0-7; and “RNA1{[moe](A)[sp].[moe](T)p.[moe](T)p.[moe]([m5C])p.[moe](T)[sp].d([m5C])[sp].d(T)[sp].d(T)[sp].d(A)[sp].d(T)[sp].d(A)[sp].d(T)[sp].d(T)[sp].d([m5C])[sp].d([m5C])[sp].[moe](T)p.[moe](T)p.[moe](A)[sp].[moe]([m5C])}$$$$ (last 3' nucleoside missing)”, with 0.5 score 0-7. Then “RNA1{[moe](T)[sp].[moe](G)p.[moe](G)p.[moe](G)p.[moe]([m5C])[sp].d(A)[sp].d(T)[sp].d([m5C])[sp].d(A)[sp].d(T)[sp].d(T)[sp].d(T)[sp].d(T)[sp].d(T)[sp].d(G)[sp].[moe]([m5C])p.[moe](T)p.[moe]([m5C])[sp].[moe]([m5C])}$$$$ (last 3' nucleoside missing)”, with 0 score 0-7; and “RNA1{[moe]([m5C])[sp].[moe](A)p.[moe](T)p.[moe](G)p.[moe](G)[sp].d([m5C])[sp].d(T)[sp].d(T)[sp].d([m5C])[sp].d([m5C])[sp].d(A)[sp].d([m5C])[sp].d(T)[sp].d([m5C])[sp].d(T)[sp].[moe](G)p.[moe](G)p.[moe]([m5C])[sp].[moe]([m5C])}$$$$ (last 3' nucleoside missing)”, with 1 score 0-7; and “RNA1{[moe](G)[sp].[moe](T)p.[moe](A)p.[moe](G)p.[moe](G)[sp].d(A)[sp].d(A)[sp].d([m5C])[sp].d(T)[sp].d([m5C])[sp].d(G)[sp].d(A)[sp].d(A)[sp].d([m5C])[sp].d([m5C])[sp].[moe](A)p.[moe]([m5C])p.[moe]([m5C])[sp].[moe](T)}$$$$ (last 3' nucleoside missing)”, with 2 score 0-7. Then “RNA1{[moe](T)[sp].[moe](A)p.[moe](G)p.[moe](G)p.[moe](A)[sp].d(A)[sp].d([m5C])[sp].d(T)[sp].d([m5C])[sp].d(G)[sp].d(A)[sp].d(A)[sp].d([m5C])[sp].d([m5C])[sp].d(A)[sp].[moe]([m5C])p.[moe]([m5C])p.[moe](T)[sp].[moe]([m5C])}$$$$ (last 3' nucleoside missing)”, with 0.5 score 0-7; and “RNA1{[moe]([m5C])[sp].[moe](G)p.[moe](A)p.[moe](G)p.[moe](A)[sp].d(T)[sp].d(A)[sp].d([m5C])[sp].d(T)[sp].d(T)[sp].d(G)[sp].d(T)[sp].d([m5C])[sp].d(A)[sp].d(A)[sp].[moe]([m5C])p.[moe](G)p.[moe](G)[sp].[moe]([m5C])}$$$$ (last 3' nucleoside missing)”, with 2.33 score 0-7. “RNA1{[moe](G)[sp].[moe](A)p.[moe](T)p.[moe]([m5C])p.[moe](T)p.[moe](G)p.d(A)[sp].d(A)[sp].d(T)[sp].d([m5C])[sp].d([m5C])[sp].d([m5C])[sp].d(A)[sp].d([m5C])[sp].d(T)[sp].d(T)[sp].[moe]([m5C])p.[moe]([m5C])[sp].[moe]([m5C])}$$$$ (last 3' nucleoside missing)” registered a 3 h FOB score of 0 score 0-7.

The substance “RNA1{[moe](G)[sp].[moe]([m5C])p.[moe](A)p.[moe](G)p.[moe](A)[sp].d(T)[sp].d([m5C])[sp].d(A)[sp].d(T)[sp].d(A)[sp].d(T)[sp].d(A)[sp].d([m5C])[sp].d(T)[sp].d(A)[sp].[moe](T)p.[moe](A)p.[moe]([m5C])[sp].[moe](A)}$$$$ (last 3' nucleoside missing)” showed a 3 h FOB score of 0 score 0-7. Then “RNA1{[moe](T)[sp].[moe](T)p.[moe]([m5C])p.[moe]([m5C])p.[moe](A)[sp].d(A)[sp].d(A)[sp].d(G)[sp].d(A)[sp].d(T)[sp].d(T)[sp].d([m5C])[sp].d([m5C])[sp].d(A)[sp].d([m5C])[sp].[moe](T)p.[moe](T)p.[moe](T)[sp].[moe]([m5C])}$$$$ (last 3' nucleoside missing)”, with 0 score 0-7; and “RNA1{[moe](G)[sp].[moe]([m5C])p.[moe](A)p.[moe](A)p.[moe]([m5C])[sp].d(A)[sp].d(G)[sp].d(A)[sp].d(T)[sp].d([m5C])[sp].d(T)[sp].d([m5C])[sp].d(T)[sp].d(T)[sp].d(A)[sp].[moe](T)p.[moe](T)p.[moe]([m5C])[sp].[moe](T)}$$$$ (last 3' nucleoside missing)”, with 0 score 0-7.
